The record followed here is US12552748B2, “Pyridine (thio)amides as fungicidal compounds” (Bayer Aktiengesellschaft, priority 2020, dated 2026).

Marks after values point to notes of the source that are not given here.

Series [1] in a line: physchem. It counts as physicochemical. The essentials: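 Reversed-phase HPLC per EEC directive 79/831 Annex V.A8, calibrated with straight-chain alkan-2-ones (C3–C16) of known Log P via linear interpolation of retention times. Lambda-max from UV spectra 200–400 nm at chromatographic peaks.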
Series [2] has as its system Botrytis cinerea. In words: In vivo preventive test on Botrytis cinerea (grey mould). To be noted: 500 ppm of active ingredient, preventive spray on gherkin or cabbage, evaluated 4 to 5 days after inoculation, 0% = control plants, 100% = no disease, read-out: efficacy. As to the method: B-2. In Vivo Preventive Test on Botrytis cinerea (Grey Mould [table] The active ingredients were made soluble and homogenized in a mixture of Dimethyl sulfoxide/Acetone/Tween® 80 and then diluted in water to the desired concentration. The young plants of gherkin or cabbage were treated by spraying the active ingredient prepared as described above. Control plants were treated only with an aqueous solution of Acetone/Dimethyl sulfoxide/Tween® 80. After 24 hours, the plants were contaminated by spraying the leaves with an aqueous suspension of Botrytis cinerea spores.

The subject of series [3] is Sphaerotheca fuliginea. In words: In vivo preventive test on Sphaerotheca fuliginea (powdery mildew on cucurbits). To be noted: Podosphaera fuliginea, 192 h; 500 ppm of active ingredient; preventive spray on gherkin; evaluated 8 days after inoculation; 0% = control plants, 100% = no disease; read-out: efficacy. As to the method: B-4. In Vivo Preventive Test on Sphaerotheca fuliginea (Powdery Mildew on Cucurbits [table] The active ingredients were made soluble and homogenized in a mixture of Dimethyl sulfoxide/Acetone/Tween® 80 and then diluted in water to the desired concentration. The young plants of gherkin were treated by spraying the active ingredient prepared as described above. Control plants were treated only with an aqueous solution of Acetone/Dimethyl sulfoxide/Tween® 80. After 24 hours, the plants were contaminated by spraying the leaves with an aqueous suspension of Sphaerotheca fuliginea spores.

The subject of series [4] is Alternaria alternata. The experiment in a line: Alternaria alternata in vitro cell test. It counts as cell-based. To be noted: 120 h, 20 ppm of active ingredient, liquid culture with spores, 5 days incubation, spectrometric measurement of mycelium growth, read-out: efficacy (inhibition of fungal growth). As to the method: B-6. Alternaria alternata In Vitro Cell Test • Solvent: DMSO • Culture medium: 14.6 g anhydrous D-glucose (VWR), 7.1 g Mycological Peptone (Oxoid), 1.4 g granulated Yeast Extract (Merck), QSP 1 liter • Inoculum: spores suspension Fungicides were solubilized in DMSO and the solution used to prepare the required range of concentrations. […] A spore suspension of A. alternata was prepared and diluted to the desired spore density. Fungicides were evaluated for their ability to inhibit spore germination and mycelium growth in liquid culture assay. The compounds were added in the desired concentration to the culture medium with spores. After 5 days incubation, fungi-toxicity of compounds was determined by spectrometric measurement of mycelium growth. Inhibition of fungal growth was determined by comparing the absorbance values in wells containing the fungicides with the absorbance in control wells without fungicides.

A word on the chromatographic logP: it is lipophilicity estimated from chromatographic retention. Higher therefore signals a more lipophilic compound. As usually defined, the inhibition is the percentage by which the read-out fell short of the control. On to `Cc1ccc(C(F)(F)CNC(=O)c2c(Oc3cccc(C(F)(F)F)c3)cnc(Cl)c2I)c(C)c1` [Compound I-057, 2-chloro-N-[2-(2,4-dimethylphenyl)-2,2-difluoro-ethyl]-3-iodo-5-[3-(trifluoromethyl)phenoxy]pyridine-4-carboxamide], for which, in series [1], the chromatographic logP amounted to 4.8. For the same compound, the pest or weed control at 500 ppm in series [2] and in series [3] was 90 to 100% each time. In series [4], the inhibition at 20 ppm fell in the range of 90 to 100%.
The compound `Cc1ccc(CCNC(=O)c2cc(Cl)nc(F)c2Oc2cccc(C(F)(F)F)c2)c(C)c1` [Compound I-018, 6-chloro-N-[2-(2,4-dimethylphenyl)ethyl]-2-fluoro-3-[3-(trifluoromethyl)phenoxy]pyridine-4-carboxamide] returned a chromatographic logP in series [1] of 4.95. For the same compound, the pest or weed control at 500 ppm in series [2] and in series [3] was 90 to 100% in each case.
Compound `CCc1ccc(C(F)(F)CNC(=O)c2cc(Cl)ncc2Oc2cccc(C(F)(F)F)c2)c(Cl)c1` [Compound I-034, 2-chloro-N-[2-(2-chloro-4-ethyl-phenyl)-2,2-difluoro-ethyl]-5-[3-(trifluoromethyl)phenoxy]pyridine-4-carboxamide] had a chromatographic logP in series [1] of 4.98. Moreover, the pest or weed control at 500 ppm in series [2] and in series [3] was 90 to 100% each time. Besides, in series [4], the inhibition at 20 ppm lay in the range of 80 to 89%.
Take `Cc1cccc(Oc2cnc(Cl)cc2C(=O)NCC(F)c2ccc(Cl)cc2Cl)c1` (racemic) [Compound I-043]: the LogP in series [1] is 4.92^[a].
Same read-out and setting: next, `O=C(NCC(F)(F)c1ccc(Br)cc1Cl)c1cc(Cl)ncc1Oc1cccc(C(F)F)c1` [Compound I-249]: 4.54^[a]; `Cc1cc(Br)ccc1C(F)CNC(=O)c1cc(Cl)ncc1Oc1cccc(C(F)(F)F)c1` (racemic) [Compound I-086]: 4.93^[a]; `Cc1ccc(CCNC(=O)c2cc(Cl)ncc2Oc2cccc(Cl)c2)c(C)c1` [Compound I-238]: 4.74^[a].
Regarding `CCc1ccc(C(F)(F)CNC(=O)c2cc(Cl)ncc2Oc2cccc(C3CC3)c2)c(Cl)c1` [Compound I-185], in series [1], the LogP was 5.49^[a].
The same measure, in the same setting: with `COCCc1cc(C(=O)NCCc2ccc(C)cc2C)c(Oc2cccc(C(F)(F)F)c2)cn1` [Compound I-118] the figure was 4.16^[a].
On to `Cc1ccc(CCNC(=O)c2cc(Cl)ncc2Oc2cccc(F)c2F)c(C)c1` [Compound I-226], for which the LogP in series [1] was 4.38^[a].
On the same count and under the same terms, next, `O=C(NCC(F)(F)c1ccc(Br)cc1Cl)c1cc(Cl)ncc1Oc1cccc(Cl)c1` [Compound I-241]: 4.95^[a]; `COc1cccc(Oc2cnc(Cl)cc2C(=O)NCCc2ccc(C)cc2C)c1F` [Compound I-132]: 4.26^[a].
On to `COc1cc(C(=O)NCC(F)(F)c2ccc(Br)cc2Cl)c(Oc2cccc(C(F)(F)F)c2)cn1` [Compound I-003], for which the LogP in series [1] was 4.95^[a].
In the case of `Cc1ccc(CCNC(=O)c2cc(Cl)ncc2Oc2cccc(-c3ccccn3)c2)c(C)c1` [Compound I-258], the LogP in series [1] is 4.16^[a].
In the case of `Cc1ccc(CCNC(=O)c2cc(C(F)(F)F)ncc2Br)c(C)c1` [Compound 3-002], the LogP in series [1] is 3.77^[a].
For the compound `Cc1ccc(CCNC(=O)c2cc(C(C)O)ncc2Oc2cccc(C(F)(F)F)c2)c(C)c1` (centres unmarked) [Compound I-112], the LogP in series [1] was 3.67^[a].
On the same count and under the same terms, next, `C#Cc1cccc(Oc2cnc(Cl)cc2C(=O)NCCc2ccc(C)cc2C)c1` [Compound I-129]: 4.45^[a]; `Cc1ccc(C(F)(F)CNC(=O)c2cc(C)ncc2Oc2cccc(C3CC3)c2)c(C)c1` [Compound I-070]: 4.44^[a].
Still for that read-out and setting: next, `Cc1ccc(CCNC(=O)c2cc(Cl)ncc2Oc2ccc(C(F)(F)F)c(Cl)c2)c(C)c1` [Compound I-111]: 4.48^[a]; `Cc1ccc(CCNC(=O)c2cc(Cl)ncc2Oc2cccc(N(C)C)c2)c(C)c1` [Compound I-170]: 4.83^[a].
On to `O=C(NCCc1ccc2c(c1)CCO2)c1cc(Cl)ncc1Oc1cccc(C(F)(F)F)c1` [Compound I-104], for which the LogP in series [1] is 3.98^[a].
Still for that read-out and setting: next, `CCc1cc(C(=O)NCC(F)(F)c2ccc(C)cc2C)c(Oc2cccc(C3CC3)c2)cn1` [Compound I-212]: 4.90^[a]; `Cc1ccc(C(F)(F)CNC(=O)c2cc(Cl)ncc2Oc2cccc(C3CC3)c2)c(C)c1` [Compound I-065]: 5.17^[a].
In series [1], `Cc1ccc(CCNC(=O)c2cc(NC3CC3)ncc2Oc2cccc(C(F)(F)F)c2)c(C)c1` [Compound I-050, 2-(cyclopropylamino)-N-[2-(2,4-dimethylphenyl)ethyl]-5-[3-(tri-fluoromethyl)phenoxy]pyridine-4-carboxamide] came in with a chromatographic logP of 3.77. In addition, in series [2], the pest or weed control at 500 ppm was in the range of 90 to 100%. Further, the inhibition at 20 ppm in series [4] was in the range of 90 to 100%.
For the compound `COC(=O)c1cccc(Oc2cnc(Cl)cc2C(=O)NCCc2ccc(C)cc2C)c1` [Compound I-147], in series [1], the LogP is 4.20^[a].
On the same count and under the same terms, next, `CC(C)Oc1ccc(CCNC(=O)c2cc(Cl)ncc2Oc2cccc(C(F)(F)F)c2)cn1` [Compound I-106]: 4.08^[a]; `CSc1cccc(Oc2cnc(Cl)cc2C(=O)NCCc2ccc(C)cc2C)c1F` [Compound I-237]: 4.69^[a].
The same measure, in the same setting: next, `Cc1cc(C(=O)NCC(F)c2ccc(Cl)cc2Cl)c(Oc2cccc(C3CC3)c2F)cn1` (racemic) [Compound I-078]: 4.49^[a]; `O=C(NCC(F)(F)c1ccc(Br)cc1Cl)c1cc(Cl)ncc1Oc1cccc(C2CC2)c1` [Compound I-066]: 5.36^[a]; `COc1c(Cl)ncc(Br)c1C(=O)NCC(F)(F)c1ccc(C)cc1C` [Compound 3-007]: 3.75^[a].
Still for that read-out and setting: next, `Cc1ccc(C(F)(F)CNC(=O)c2cc(Cl)ncc2Oc2cncc(C(F)(F)F)c2)c(C)c1` [Compound I-163]: 4.15^[a]; `Cn1cc(-c2ccc(C(F)(F)CNC(=O)c3cc(Cl)ncc3Oc3cccc(C(F)F)c3)c(Cl)c2)cn1` [Compound I-117]: 3.64^[a].
Regarding `COC(=O)Cc1cccc(Oc2cnc(Cl)cc2C(=O)NCCc2ccc(C)cc2C)c1` [Compound I-196], the LogP in series [1] was 4.17^[a].
Same read-out and setting: with `C#Cc1cc(C(=O)O)c(Oc2cccc(C(F)(F)F)c2)cn1` [Compound 1-002] the figure was 2.39^[a]; with `O=C(NCC(F)c1ccc(Br)cc1Cl)c1cc(Cl)ncc1Oc1cccc(C(F)(F)F)c1` (centres unmarked) [Compound I-012], 4.85^[a].
On the same count and under the same terms, next, `O=C(NCC(F)(F)c1ccc(-c2ccncc2Cl)cc1Cl)c1cc(-c2ccncc2Cl)ncc1Oc1cccc(C(F)(F)F)c1` [Compound I-172]: 4.33^[a]; `COc1cc(C(=O)NCCc2ccc(C)cc2C)c(Oc2cccc(C(F)(F)F)c2)cn1` [Compound 1-160]: 4.69^[a]; `Cc1ccc(CCNC(=O)c2cc(Cl)ncc2Oc2cccc(C3CC3)c2F)c(C)c1` [Compound I-062]: 5.11^[a].
Same read-out and setting: next, `CO/N=C(\C)c1cc(C(=O)NCCc2ccc(C)cc2C)c(Oc2cccc(C(F)(F)F)c2)cn1` [Compound I-093]: 5.36^[a]; `O=C(NCC(F)(F)c1cc(Cl)sc1Cl)c1cc(Cl)ncc1Oc1cccc(C(F)(F)F)c1` [Compound I-211]: 5.04^[a]; `Cc1ccc(CCNC(=O)c2cc(C3CC3)ncc2Oc2cccc(C(F)(F)F)c2)c(C)c1` [Compound I-194]: 4.97^[a].
On to `O=C(NCC(F)c1ccc(Cl)cc1Cl)c1cc(Cl)ncc1Oc1cccc(C2CC2)c1` (racemic) [Compound I-063], for which, in series [1], the LogP is 4.92^[a].
In the case of `Cc1ccc(CCNC(=S)c2cc(Cl)ncc2Oc2cccc(C(F)(F)F)c2)c(C)c1` [Compound I-115, 2-chloro-N-[2-(2,4-dimethylphenyl)ethyl]-5-[3-(trifluoromethyl)phenoxy]pyridine-4-carbothioamide], the chromatographic logP in series [1] came out at 5.42. Moreover, the pest or weed control at 500 ppm in series [2] and in series [3] was 90 to 100% in each case.
The compound `CC(=O)c1cc(C(=O)O)c(Oc2cccc(C(F)(F)F)c2)cn1` [Compound 1-011, 2-acetyl-5-[3-(trifluoromethyl)phenoxy]pyridine-4-carboxylic acid] returned a chromatographic logP in series [1] of 2.54.
